Holding throughout (test): pIC50, kinobeads binding competition
The target of experiment [1] is T1, UniProt O60285.
T1 sequence (whole entry): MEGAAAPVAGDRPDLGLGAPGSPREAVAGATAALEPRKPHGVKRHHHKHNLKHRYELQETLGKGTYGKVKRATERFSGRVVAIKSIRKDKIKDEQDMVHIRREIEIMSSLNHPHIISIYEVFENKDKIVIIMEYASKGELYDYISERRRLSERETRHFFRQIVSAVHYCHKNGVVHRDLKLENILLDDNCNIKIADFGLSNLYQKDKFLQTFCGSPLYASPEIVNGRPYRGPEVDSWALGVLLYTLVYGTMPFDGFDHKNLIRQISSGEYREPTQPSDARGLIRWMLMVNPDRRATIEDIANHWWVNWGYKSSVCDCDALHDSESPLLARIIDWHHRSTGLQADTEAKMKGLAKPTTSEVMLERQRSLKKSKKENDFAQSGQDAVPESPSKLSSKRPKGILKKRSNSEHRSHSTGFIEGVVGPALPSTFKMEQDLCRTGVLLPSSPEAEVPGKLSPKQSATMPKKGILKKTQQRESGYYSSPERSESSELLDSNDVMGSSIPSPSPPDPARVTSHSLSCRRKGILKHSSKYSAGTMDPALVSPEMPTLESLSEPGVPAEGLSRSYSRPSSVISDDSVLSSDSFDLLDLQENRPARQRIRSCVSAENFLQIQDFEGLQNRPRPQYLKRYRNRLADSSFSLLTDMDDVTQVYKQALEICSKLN
Conditions: cell material: Lysate mix. The procedure, abridged: (§1)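 Live Jurkat cells were treated with nine compound concentrations (top 30 μM, 1:4 steps) or DMSO for 60 min at 37 °C before lysis. Alternatively, Jurkat lysate or a 1:1:1:1 HEK293/K-562/HepG2/placenta lysate mix was incubated with nine concentrations (top 30 μM, 1:5 steps) for 60 min at 4 °C. Kinobeads-bound proteins were digested and quantified by TMT10 LC-MS/MS. pIC50 came from logistic dose-response fits (R drc package) of fold changes versus DMSO, in biological duplicates.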

The target in experiment [2] is T2, MAP3K15 (UniProt Q6ZN16).
T2 sequence (whole entry): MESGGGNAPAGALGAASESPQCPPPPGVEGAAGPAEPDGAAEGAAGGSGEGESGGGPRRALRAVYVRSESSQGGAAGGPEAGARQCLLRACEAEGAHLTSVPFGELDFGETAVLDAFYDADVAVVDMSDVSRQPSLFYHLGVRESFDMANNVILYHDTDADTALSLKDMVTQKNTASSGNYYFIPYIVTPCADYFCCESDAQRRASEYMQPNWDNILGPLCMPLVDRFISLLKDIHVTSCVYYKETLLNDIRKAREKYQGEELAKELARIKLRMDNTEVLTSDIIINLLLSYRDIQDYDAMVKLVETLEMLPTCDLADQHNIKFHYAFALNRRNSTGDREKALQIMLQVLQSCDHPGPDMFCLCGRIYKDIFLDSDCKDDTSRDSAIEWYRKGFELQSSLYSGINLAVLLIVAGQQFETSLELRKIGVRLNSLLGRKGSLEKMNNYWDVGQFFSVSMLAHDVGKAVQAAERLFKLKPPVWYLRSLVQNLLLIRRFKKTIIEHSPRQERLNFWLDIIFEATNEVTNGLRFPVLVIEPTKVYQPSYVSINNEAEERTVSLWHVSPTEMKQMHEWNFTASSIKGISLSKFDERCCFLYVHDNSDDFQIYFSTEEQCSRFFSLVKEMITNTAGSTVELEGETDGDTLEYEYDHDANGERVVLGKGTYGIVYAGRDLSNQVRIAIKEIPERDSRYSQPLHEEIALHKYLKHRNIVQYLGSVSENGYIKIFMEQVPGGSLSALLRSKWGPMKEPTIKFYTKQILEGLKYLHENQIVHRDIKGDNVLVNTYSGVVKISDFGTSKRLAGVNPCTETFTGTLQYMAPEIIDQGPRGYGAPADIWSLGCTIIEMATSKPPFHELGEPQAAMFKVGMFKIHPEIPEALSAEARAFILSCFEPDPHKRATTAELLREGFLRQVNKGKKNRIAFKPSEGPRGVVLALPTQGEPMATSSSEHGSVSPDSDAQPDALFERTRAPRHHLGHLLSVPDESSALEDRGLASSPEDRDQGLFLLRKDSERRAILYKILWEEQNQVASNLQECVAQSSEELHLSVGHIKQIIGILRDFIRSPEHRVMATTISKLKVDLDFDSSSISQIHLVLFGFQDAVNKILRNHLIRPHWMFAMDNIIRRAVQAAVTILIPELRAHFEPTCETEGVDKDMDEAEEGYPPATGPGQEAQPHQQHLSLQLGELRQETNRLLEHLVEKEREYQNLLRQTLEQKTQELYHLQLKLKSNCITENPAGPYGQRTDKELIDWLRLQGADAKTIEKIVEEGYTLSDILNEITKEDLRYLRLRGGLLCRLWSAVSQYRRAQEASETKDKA
Conditions: cell material: Lysate mix. The procedure, abridged:
as §1

Experiment [3] deals with T3, SGK3 (UniProt Q96BR1).
T3 sequence (whole entry): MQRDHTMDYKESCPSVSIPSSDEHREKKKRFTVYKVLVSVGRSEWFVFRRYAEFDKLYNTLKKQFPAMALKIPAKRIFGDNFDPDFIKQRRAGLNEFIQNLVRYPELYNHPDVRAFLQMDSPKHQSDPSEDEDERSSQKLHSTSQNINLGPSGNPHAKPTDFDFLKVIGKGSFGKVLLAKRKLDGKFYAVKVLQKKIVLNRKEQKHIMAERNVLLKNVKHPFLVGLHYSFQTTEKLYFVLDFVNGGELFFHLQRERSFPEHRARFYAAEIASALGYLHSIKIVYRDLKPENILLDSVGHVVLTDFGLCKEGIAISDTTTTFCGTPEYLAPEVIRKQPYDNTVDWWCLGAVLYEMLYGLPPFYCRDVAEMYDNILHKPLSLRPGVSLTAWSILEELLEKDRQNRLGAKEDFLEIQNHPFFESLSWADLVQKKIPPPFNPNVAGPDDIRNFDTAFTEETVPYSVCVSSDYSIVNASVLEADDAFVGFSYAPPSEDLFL
A digest of the protocol:
as §1

The target in experiment [4] is CDK2 (UniProt P24941). The procedure, abridged:
as §1

Experiment [5] addresses DYRK1A (UniProt Q13627). A digest of the protocol:
as §1

Experiment [6] addresses UniProt Q15208. A digest of the protocol:
as §1

For experiment [7], the target named is CIT (UniProt O14578). A digest of the protocol:
as §1

Experiment [8] has as its target UniProt Q13131. A digest of the protocol:
as §1

Sequence of UniProt Q13131 (Q13131 whole entry, looked up): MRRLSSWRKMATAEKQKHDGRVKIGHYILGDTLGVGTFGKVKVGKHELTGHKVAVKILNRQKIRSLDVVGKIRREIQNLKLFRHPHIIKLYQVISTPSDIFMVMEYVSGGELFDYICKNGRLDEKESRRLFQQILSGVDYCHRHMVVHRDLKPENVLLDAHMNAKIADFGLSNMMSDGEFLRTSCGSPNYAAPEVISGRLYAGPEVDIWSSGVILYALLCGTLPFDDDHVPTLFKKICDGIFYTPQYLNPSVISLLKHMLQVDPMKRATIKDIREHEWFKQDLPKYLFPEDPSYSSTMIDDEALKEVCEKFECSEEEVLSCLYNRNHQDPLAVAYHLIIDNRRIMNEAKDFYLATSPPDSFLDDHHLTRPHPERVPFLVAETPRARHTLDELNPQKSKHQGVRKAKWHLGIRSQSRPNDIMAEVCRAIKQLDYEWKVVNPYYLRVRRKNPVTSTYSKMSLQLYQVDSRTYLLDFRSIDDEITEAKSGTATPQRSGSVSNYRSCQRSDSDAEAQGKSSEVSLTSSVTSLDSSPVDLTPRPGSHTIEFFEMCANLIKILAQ
Sequence of CIT (O14578 whole entry): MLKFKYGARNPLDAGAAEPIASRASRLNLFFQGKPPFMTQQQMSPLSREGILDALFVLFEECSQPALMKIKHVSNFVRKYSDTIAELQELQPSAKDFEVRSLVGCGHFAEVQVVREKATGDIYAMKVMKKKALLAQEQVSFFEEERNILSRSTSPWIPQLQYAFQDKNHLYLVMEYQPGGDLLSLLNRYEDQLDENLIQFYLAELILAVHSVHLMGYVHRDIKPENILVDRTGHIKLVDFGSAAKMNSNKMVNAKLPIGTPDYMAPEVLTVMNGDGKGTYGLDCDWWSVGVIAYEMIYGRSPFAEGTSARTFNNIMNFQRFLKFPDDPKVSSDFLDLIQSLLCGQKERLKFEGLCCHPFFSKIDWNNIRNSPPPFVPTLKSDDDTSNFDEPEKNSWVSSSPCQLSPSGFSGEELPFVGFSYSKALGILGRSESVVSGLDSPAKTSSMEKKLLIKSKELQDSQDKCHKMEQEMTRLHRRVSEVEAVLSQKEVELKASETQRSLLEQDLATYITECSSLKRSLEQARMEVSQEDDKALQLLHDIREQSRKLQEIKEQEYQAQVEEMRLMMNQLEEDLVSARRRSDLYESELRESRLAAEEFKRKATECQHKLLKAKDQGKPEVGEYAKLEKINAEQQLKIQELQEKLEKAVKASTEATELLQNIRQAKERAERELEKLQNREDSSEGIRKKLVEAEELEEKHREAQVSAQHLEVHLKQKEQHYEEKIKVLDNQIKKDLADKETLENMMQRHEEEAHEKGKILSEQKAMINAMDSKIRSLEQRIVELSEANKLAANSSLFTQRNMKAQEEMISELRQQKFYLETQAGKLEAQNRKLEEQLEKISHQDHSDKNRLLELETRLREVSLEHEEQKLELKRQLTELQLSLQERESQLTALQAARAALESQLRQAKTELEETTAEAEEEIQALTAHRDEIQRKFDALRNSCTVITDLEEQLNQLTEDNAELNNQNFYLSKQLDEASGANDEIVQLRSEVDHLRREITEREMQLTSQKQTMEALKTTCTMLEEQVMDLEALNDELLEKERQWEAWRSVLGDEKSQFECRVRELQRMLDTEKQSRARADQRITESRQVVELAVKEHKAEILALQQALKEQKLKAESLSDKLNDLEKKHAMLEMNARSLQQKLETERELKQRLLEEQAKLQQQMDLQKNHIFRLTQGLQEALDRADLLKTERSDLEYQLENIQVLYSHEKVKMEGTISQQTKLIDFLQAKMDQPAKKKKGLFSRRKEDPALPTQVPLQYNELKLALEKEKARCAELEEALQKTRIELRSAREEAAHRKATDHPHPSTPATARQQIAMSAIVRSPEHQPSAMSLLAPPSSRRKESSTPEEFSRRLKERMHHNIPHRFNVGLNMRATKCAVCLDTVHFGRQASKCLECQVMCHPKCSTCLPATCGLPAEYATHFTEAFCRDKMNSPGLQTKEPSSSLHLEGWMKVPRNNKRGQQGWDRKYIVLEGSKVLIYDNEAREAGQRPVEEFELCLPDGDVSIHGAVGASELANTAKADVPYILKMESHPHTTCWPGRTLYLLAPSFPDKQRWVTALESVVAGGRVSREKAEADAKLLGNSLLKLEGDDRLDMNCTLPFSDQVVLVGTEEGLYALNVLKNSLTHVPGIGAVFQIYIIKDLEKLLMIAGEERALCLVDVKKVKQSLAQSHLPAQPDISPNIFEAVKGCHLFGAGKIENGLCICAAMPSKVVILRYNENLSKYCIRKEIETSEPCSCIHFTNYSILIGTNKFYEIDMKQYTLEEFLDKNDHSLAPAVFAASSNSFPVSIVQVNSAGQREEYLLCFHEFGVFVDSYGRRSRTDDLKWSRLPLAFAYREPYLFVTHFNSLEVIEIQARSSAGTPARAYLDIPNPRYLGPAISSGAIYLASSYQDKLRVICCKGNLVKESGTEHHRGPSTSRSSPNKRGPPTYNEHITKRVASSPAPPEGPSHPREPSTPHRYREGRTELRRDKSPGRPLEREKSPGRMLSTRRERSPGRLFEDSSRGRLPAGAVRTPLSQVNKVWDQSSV
Sequence of UniProt Q15208 (Q15208 whole entry, looked up): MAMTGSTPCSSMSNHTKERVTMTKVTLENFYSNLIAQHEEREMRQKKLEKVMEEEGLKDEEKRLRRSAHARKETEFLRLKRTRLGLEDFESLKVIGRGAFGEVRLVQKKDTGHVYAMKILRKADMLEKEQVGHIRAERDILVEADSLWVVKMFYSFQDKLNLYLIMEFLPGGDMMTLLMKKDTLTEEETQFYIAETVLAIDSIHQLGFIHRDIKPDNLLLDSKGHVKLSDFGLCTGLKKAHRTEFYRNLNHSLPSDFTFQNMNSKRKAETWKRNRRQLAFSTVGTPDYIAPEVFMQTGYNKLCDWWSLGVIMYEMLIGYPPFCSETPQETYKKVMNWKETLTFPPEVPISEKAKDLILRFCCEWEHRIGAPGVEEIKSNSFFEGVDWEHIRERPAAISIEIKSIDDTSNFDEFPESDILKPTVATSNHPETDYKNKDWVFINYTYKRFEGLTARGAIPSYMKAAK

`O=C(NCCNC(=O)c1cc(Nc2cc(C3CC3)[nH]n2)nc(N2CCN(Cc3ccc(S(=O)(=O)F)cc3)CC2)n1)OC1CC/C=C/CCC1` (stereo not given): the pIC50 in experiment [1] was below 4.52; in experiment [2], below 4.52; in experiment [3] (cell material: Jurkat cells) it was 6.44; in experiment [3] (cell material: Jurkat lysate), 4.92; in experiment [3] (cell material: Lysate mix) it was 4.88; in experiment [4] (cell material: Jurkat cells), 6.45. In addition, the pIC50 in experiment [4] (cell material: Jurkat lysate) is 5.06; in experiment [4] (cell material: Lysate mix), 5.19; in experiment [5] (cell material: Jurkat cells), below 4.52; in experiment [5] (cell material: Jurkat lysate), below 4.52; in experiment [5] (cell material: Lysate mix), below 4.52; in experiment [6] (cell material: Jurkat cells), 6.33. Further, the pIC50 in experiment [6] (cell material: Jurkat lysate) is 4.8; in experiment [6] (cell material: Lysate mix) it was 5.11; in experiment [7] (cell material: Jurkat cells), below 4.52; in experiment [7] (cell material: Jurkat lysate), below 4.52; in experiment [7] (cell material: Lysate mix), below 4.52; in experiment [8] (cell material: Jurkat cells), 6.8. Also, the pIC50 in experiment [8] (cell material: Jurkat lysate) was 5.32; in experiment [8] (cell material: Lysate mix) it was 5.56.
Take `Cc1cc(Nc2cc(C(=O)NCCNC(=O)OC3CC/C=C/CCC3)nc(N3CCN(Cc4ccc(S(=O)(=O)F)cc4)CC3)n2)n[nH]1` (stereo not given): the negative logarithm of the IC50 (pIC50) in experiment [1] was below 4.52; in experiment [2], below 4.52; in experiment [3] (cell material: Lysate mix) it was 5.22; in experiment [4] (cell material: Lysate mix), 4.74; in experiment [5] (cell material: Lysate mix), below 4.52; in experiment [6] (cell material: Lysate mix) it was below 4.52. Also, the results for the pIC50 in experiment [7] (cell material: Lysate mix) and in experiment [8] (cell material: Lysate mix) were below 4.52 and 5.24, respectively.
Turning to `CCNC(=O)c1cc(Nc2cc(C)[nH]n2)nc(N2CCN(Cc3ccc(S(=O)(=O)F)cc3)CC2)n1`, the pIC50 in experiment [1] was below 4.52; in experiment [2], 4.94; in experiment [3] (cell material: Lysate mix), 5.98; in experiment [4] (cell material: Lysate mix), 6.47; in experiment [5] (cell material: Lysate mix), below 4.52; in experiment [6] (cell material: Lysate mix), 4.8. Further, the values for the pIC50 in experiment [7] (cell material: Lysate mix) and in experiment [8] (cell material: Lysate mix) were below 4.52 and 6.97, respectively.
As to `C#CCNC(=O)c1cc(Nc2cc(C3CC3)[nH]n2)nc(N2CCN(Cc3ccc(S(=O)(=O)F)cc3)CC2)n1`, the pIC50 in experiment [1] is 4.83; in experiment [2], below 4.52; in experiment [3] (cell material: Jurkat cells), 6.6; in experiment [3] (cell material: Jurkat lysate), 5.65; in experiment [3] (cell material: Lysate mix) it was 5.96; in experiment [4] (cell material: Jurkat cells) it was 6.8. Also, the pIC50 in experiment [4] (cell material: Jurkat lysate) was 6.16; in experiment [4] (cell material: Lysate mix), 6.7; in experiment [5] (cell material: Jurkat cells), 5.41; in experiment [5] (cell material: Jurkat lysate) it was below 4.52; in experiment [6] (cell material: Jurkat cells), 6.44; in experiment [6] (cell material: Jurkat lysate) it was 5.44. Besides, the pIC50 in experiment [6] (cell material: Lysate mix) is 6.2; in experiment [7] (cell material: Jurkat lysate), below 4.52; in experiment [7] (cell material: Lysate mix), below 4.52; in experiment [8] (cell material: Jurkat cells), 6.64; in experiment [8] (cell material: Jurkat lysate), 6.58; in experiment [8] (cell material: Lysate mix) it was 7.2.
As to `C#CCNC(=O)c1cc(Nc2cc(C)[nH]n2)nc(N2CCN(Cc3ccc(S(=O)(=O)F)cc3)CC2)n1`, the pIC50 is below 4.52 in experiment [1]; 4.92 in experiment [2]; 6.06 in experiment [3] (cell material: Lysate mix); 6.2 in experiment [4] (cell material: Lysate mix); below 4.52 in experiment [5] (cell material: Lysate mix); 5 in experiment [6] (cell material: Lysate mix). Besides, the figures for the pIC50 in experiment [7] (cell material: Lysate mix) and in experiment [8] (cell material: Lysate mix) were below 4.52 and 6.3, respectively.
On to `CCNC(=O)c1cc(Nc2cc(C3CC3)[nH]n2)nc(N2CCN(Cc3ccc(S(=O)(=O)F)cc3)CC2)n1`, for which the pIC50 was 4.98 in experiment [1]; below 4.52 in experiment [2]; 5.67 in experiment [3] (cell material: Lysate mix); 6.29 in experiment [4] (cell material: Lysate mix); below 4.52 in experiment [5] (cell material: Lysate mix); 5.83 in experiment [6] (cell material: Lysate mix). Further, the pIC50 in experiment [7] (cell material: Lysate mix) was below 4.52; in experiment [8] (cell material: Lysate mix) it was 7.03.

These data come from the supplement of paper PMC12076712.
